Measured values: ChEMBL document CHEMBL1124625, “Flavones. 2. Synthesis and structure-activity relationship of flavodilol and its analogues, a novel class of antihypertensive agents with catecholamine depleting properties” (J Med Chem, 1989)
pKi: −log10 of the molar value. One block for each compound: values may come before it.

Assays:
[1] = tested on: Rattus norvegicus; assay: Systolic blood pressure (SBP) in anesthetized spontaneously hypertensive rats(SHR) at 7.5 hours after administration of 35 mg/kg dose perorally; format: functional; conditions: route oral
[2] = tested on: Rattus norvegicus; assay: Systolic blood pressure (SBP) in anesthetized spontaneously hypertensive rats(SHR) before administration of 35 mg/kg dose perorally; format: functional; parameters: unit not given here; conditions: route oral
[3] = tested on: Rattus norvegicus; assay: Systolic blood pressure (SBP) in anesthetized spontaneously hypertensive rats (SHR) before administration of 75 mg/kg dose perorally.; format: functional; parameters: unit: mmHg; conditions: route oral
[4] = tested on: Rattus norvegicus; assay: Systolic blood pressure (SBP) in anesthetized spontaneously hypertensive rats(SHR) at 7.5 hours after administration of 75 mg/kg dose perorally; NS is not statistically significant.
[5] = tested on: Rattus norvegicus; assay: Systolic blood pressure (SBP) in anesthetized spontaneously hypertensive rats(SHR) at 7.5 hours after administration of 75 mg/kg dose perorally; NS is not statistically significant
[6] = species: Cavia porcellus; assay: Inhibition of the isoproterenol response at a dose of 1 x 10e -4M in guinea pig; slight inhibition was found; format: functional, organism-based
[7] = tested on: Rattus norvegicus; assay: Systolic blood pressure (SBP) in anesthetized spontaneously hypertensive rats(SHR) at 7.5 hours after administration of 75 mg/kg dose perorally; format: functional; conditions: route oral
[8] = target: T1, Adrenergic receptor beta (Rattus norvegicus, UniProt P18090+P10608+P26255)
Description: Inhibition constant from beta adrenergic receptor binding assay

[9] = tested on: Rattus norvegicus; assay: Systolic blood pressure (SBP) in anesthetized spontaneously hypertensive rats(SHR) before administration of 150 mg/kg dose perorally; format: functional; conditions: route oral
[10] = tested on: Rattus norvegicus; assay: Systolic blood pressure (SBP) in anesthetized spontaneously hypertensive rats(SHR) at 7.5 hours after administration of 75 mg/kg dose perorally; value not statistically significant.; format: functional; conditions: route oral
[11] = target: T1, Adrenergic receptor beta; assay: Inhibition constant obtained from beta adrenergic receptor binding assay; format: protein assay
[12] = tested on: Rattus norvegicus; assay: % decrease in adrenal epinephrine in anesthetized spontaneously hypertensive rats(SHR) at 24 hours after administration of 150 mg/kg dose perorally; format: functional; conditions: route oral
[13] = tested on: Rattus norvegicus; assay: % decrease in heart norepinephrine in anesthetized spontaneously hypertensive rats(SHR) at 24 hours after administration of 150 mg/kg dose perorally; format: functional; conditions: route oral
[14] = tested on: Rattus norvegicus; assay: % decrease in systolic blood pressure (SBP) in anesthetized spontaneously hypertensive rats(SHR) after administration of 150 mg/kg dose perorally; conditions: route oral
[15] = tested on: Rattus norvegicus; assay: % decrease in brain norepinephrine in anesthetized spontaneously hypertensive rats(SHR) at 24 hours after administration of 150 mg/kg dose perorally; conditions: route oral
[16] = tested on: Rattus norvegicus; assay: Systolic blood pressure (SBP) in anesthetized spontaneously hypertensive rats(SHR) at 7.5 hours after administration of 30 mg/kg dose intravenously; NS is not statistically significant; format: functional, organism-based; parameters: dose 30 mg/kg
[17] = tested on: Rattus norvegicus; assay: Systolic blood pressure (SBP) in anesthetized spontaneously hypertensive rats(SHR) before administration of 30 mg/kg dose intravenously; format: functional; conditions: route intravenous

Compound: CCCCNCC(O)COc1ccc2c(=O)cc(-c3ccccc3)oc2c1 (configuration not stated)
Decrease in Systolic blood pressure [1]: 26%
Systolic blood pressure [2]: 202

Compound: CC(C)NCC(O)COc1ccc2c(=O)cc(-c3cccc(Cl)c3)oc2c1 (configuration not stated)
Systolic blood pressure [3]: 200
Decrease in Systolic blood pressure [4]: Not significant

Compound: COc1ccc(CCNCC(O)COc2ccc3c(=O)cc(-c4ccccc4)oc3c2)cc1OC (configuration not stated)
Systolic blood pressure [3]: 204
Decrease in Systolic blood pressure [4]: Not significant

Compound: CC(C)NCC(O)COc1ccc2c(=O)cc(-c3ccccc3Cl)oc2c1 (configuration not stated)
Decrease in Systolic blood pressure [1]: 18%
Systolic blood pressure [2]: 192

Compound: O=c1cc(-c2ccccc2)oc2cc(OCC(O)CNC3CCS(=O)(=O)C3)ccc12 (configuration not stated)
Systolic blood pressure [3]: 196
Decrease in Systolic blood pressure [5]: Not significant

Compound: CC(C)NCC(O)COc1ccc2c(c1)OC(c1ccccc1)CC2=O (configuration not stated)
Systolic blood pressure [3]: 198
Decrease in Systolic blood pressure [5]: Not significant

Ki [8]: 2.2 µM
Compound: CC(C)NCC(O)COc1ccc2oc(-c3ccccc3)cc(=O)c2c1 (configuration not stated)
Activity [6]: Weak activity
Decrease in Systolic blood pressure [7]: 12%
Systolic blood pressure [3]: 199

Ki [8]: 18 µM
Compound: CC(C)(C)NCC(O)COc1ccc2c(=O)cc(-c3ccccc3)oc2c1 (configuration not stated)
Systolic blood pressure [9]: 201

Compound: COc1ccc(-c2cc(=O)c3ccc(OCC(O)CNC(C)C)cc3o2)cc1 (configuration not stated)
Decrease in Systolic blood pressure [10]: 10%
Systolic blood pressure [3]: 198

pKi [8]: 8.12
Compound: CC(C)NCC(O)COc1cccc2c(=O)cc(-c3ccccc3)oc12 (configuration not stated)
Systolic blood pressure [3]: 209

Compound: CC(C)NCCCOc1ccc2c(=O)cc(-c3ccccc3)oc2c1
Systolic blood pressure [3]: 204
Decrease in Systolic blood pressure [5]: Not significant

Ki [11]: 5.5 µM
Compound: O=c1cc(-c2ccccc2)oc2cc(OCC(O)CNC3CCCCC3)ccc12 (configuration not stated)
Decrease in Systolic blood pressure [1]: 20%
Systolic blood pressure [2]: 201

Compound: CC(C)NCC(O)COc1ccc2c(=O)c(-c3ccccc3)coc2c1 (configuration not stated)
Decrease [12]: 100%
Decrease [13]: 100%
% decrease SBP [14]: 34%
Decrease [15]: 37%

Compound: CCCNCC(O)COc1cccc2oc(-c3ccccc3)cc(=O)c12 (configuration not stated)
Decrease in Systolic blood pressure [16]: Not significant
Systolic blood pressure [17]: 157

Compound: O=c1cc(-c2ccccc2)oc2cc(OCC(O)CNCc3ccccc3)ccc12 (configuration not stated)
Systolic blood pressure [3]: 223
Decrease in Systolic blood pressure [4]: Not significant

Ki [8]: 7.5 µM
Compound: CCNCC(O)COc1ccc2c(=O)cc(-c3ccccc3)oc2c1 (configuration not stated)
Decrease in Systolic blood pressure [1]: 16%
Systolic blood pressure [2]: 186

Compound: O=c1cc(-c2ccccc2)oc2cc(O)ccc12 [7-HYDROXYFLAVONE]
Systolic blood pressure [3]: 217

Compound: NCC(O)COc1ccc2c(=O)cc(-c3ccccc3)oc2c1 (configuration not stated)
Systolic blood pressure [3]: 187
Decrease in Systolic blood pressure [5]: Not significant

Compound: O=c1cc(-c2ccccc2)oc2cc(OCC3CO3)ccc12 (configuration not stated)
Systolic blood pressure [3]: 120
